Experimental data taken from the NIST ThermoML archive (doi:10.1016/j.fluid.2017.07.006).
Numbers after ± are expanded uncertainties.

Settings: Liquid

CC(O)CO (centres undefined) [1,2-propanediol]
viscosity (292.1 K, 101.33 kPa, Capillary tube (Ostwald / Ubbelohde) method): 60.61 ± 0.37 mPa·s
viscosity (293.1 K, 101.33 kPa, Capillary tube (Ostwald / Ubbelohde) method): 58.09 ± 0.34 mPa·s
mass density (293.15 K, 101.33 kPa, Pycnometric method): 1035.5 ± 0.3 kg/m3
mass density (298.15 K, 98 kPa, Buoyancy - hydrostatic balance): 1032.56 ± 1.6 kg/m3
viscosity (298.15 K, 98 kPa, Falling or rolling sphere viscometry): 43.69 ± 0.96 mPa·s
viscosity (298.15 K, 101.33 kPa, Capillary tube (Ostwald / Ubbelohde) method): 43.69 ± 0.33 mPa·s
mass density (298.15 K, 101.33 kPa, Pycnometric method): 1032.56 ± 0.28 kg/m3
mass density (298.15 K, 49030 kPa, Buoyancy - hydrostatic balance): 1055.29 ± 1.6 kg/m3
viscosity (298.15 K, 49030 kPa, Falling or rolling sphere viscometry): 64.02 ± 1.4 mPa·s
mass density (298.15 K, 98060 kPa, Buoyancy - hydrostatic balance): 1072.94 ± 1.6 kg/m3
viscosity (298.15 K, 98060 kPa, Falling or rolling sphere viscometry): 94.28 ± 2.7 mPa·s
mass density (298.15 K, 147100 kPa, Buoyancy - hydrostatic balance): 1088.48 ± 3.3 kg/m3
viscosity (298.15 K, 147100 kPa, Falling or rolling sphere viscometry): 134.1 ± 4.9 mPa·s
mass density (298.15 K, 196130 kPa, Buoyancy - hydrostatic balance): 1104.32 ± 3.3 kg/m3
viscosity (298.15 K, 196130 kPa, Falling or rolling sphere viscometry): 187.2 ± 8.5 mPa·s
mass density (298.15 K, 245160 kPa, Buoyancy - hydrostatic balance): 1115.28 ± 3.4 kg/m3
viscosity (298.15 K, 245160 kPa, Falling or rolling sphere viscometry): 260.7 ± 15 mPa·s
mass density (303.15 K, 98 kPa, Buoyancy - hydrostatic balance): 1028.87 ± 1.5 kg/m3
viscosity (303.15 K, 98 kPa, Falling or rolling sphere viscometry): 32.35 ± 0.71 mPa·s
mass density (303.15 K, 49030 kPa, Buoyancy - hydrostatic balance): 1052.03 ± 1.6 kg/m3
viscosity (303.15 K, 49030 kPa, Falling or rolling sphere viscometry): 48.25 ± 1.1 mPa·s
mass density (303.15 K, 98060 kPa, Buoyancy - hydrostatic balance): 1070.79 ± 1.6 kg/m3
viscosity (303.15 K, 98060 kPa, Falling or rolling sphere viscometry): 69.46 ± 1.6 mPa·s
mass density (303.15 K, 147100 kPa, Buoyancy - hydrostatic balance): 1086.25 ± 3.3 kg/m3
viscosity (303.15 K, 147100 kPa, Falling or rolling sphere viscometry): 97.33 ± 2.8 mPa·s
mass density (303.15 K, 196130 kPa, Buoyancy - hydrostatic balance): 1101.4 ± 3.3 kg/m3
viscosity (303.15 K, 196130 kPa, Falling or rolling sphere viscometry): 134.7 ± 5 mPa·s
mass density (303.15 K, 245160 kPa, Buoyancy - hydrostatic balance): 1112.65 ± 3.3 kg/m3
viscosity (303.15 K, 245160 kPa, Falling or rolling sphere viscometry): 183.3 ± 8.3 mPa·s
viscosity (303.4 K, 101.33 kPa, Capillary tube (Ostwald / Ubbelohde) method): 31.54 ± 0.21 mPa·s
mass density (312.98 K, 98 kPa, Buoyancy - hydrostatic balance): 1022.16 ± 1.5 kg/m3
viscosity (312.98 K, 98 kPa, Falling or rolling sphere viscometry): 19.45 ± 0.42 mPa·s
mass density (313 K, 49030 kPa, Buoyancy - hydrostatic balance): 1046.22 ± 1.6 kg/m3
viscosity (313 K, 49030 kPa, Falling or rolling sphere viscometry): 28.34 ± 0.61 mPa·s
mass density (313.03 K, 147100 kPa, Buoyancy - hydrostatic balance): 1081.67 ± 3.2 kg/m3
viscosity (313.03 K, 147100 kPa, Falling or rolling sphere viscometry): 54.68 ± 1.1 mPa·s
mass density (313.03 K, 245160 kPa, Buoyancy - hydrostatic balance): 1107.51 ± 3.3 kg/m3
viscosity (313.03 K, 245160 kPa, Falling or rolling sphere viscometry): 98.04 ± 2.9 mPa·s
mass density (313.04 K, 196130 kPa, Buoyancy - hydrostatic balance): 1095.69 ± 3.3 kg/m3
viscosity (313.04 K, 196130 kPa, Falling or rolling sphere viscometry): 73.88 ± 1.8 mPa·s
mass density (313.05 K, 98060 kPa, Buoyancy - hydrostatic balance): 1065.24 ± 1.6 kg/m3
viscosity (313.05 K, 98060 kPa, Falling or rolling sphere viscometry): 39.87 ± 0.86 mPa·s
mass density (313.15 K, 101.33 kPa, Pycnometric method): 1021.9 ± 0.3 kg/m3
viscosity (313.9 K, 101.33 kPa, Capillary tube (Ostwald / Ubbelohde) method): 19.37 ± 0.15 mPa·s
viscosity (316 K, 101.33 kPa, Capillary tube (Ostwald / Ubbelohde) method): 17.04 ± 0.14 mPa·s
viscosity (332.1 K, 101.33 kPa, Capillary tube (Ostwald / Ubbelohde) method): 8.76 ± 0.058 mPa·s
mass density (333.15 K, 101.33 kPa, Pycnometric method): 1006.3 ± 0.4 kg/m3
mass density (335.76 K, 98060 kPa, Buoyancy - hydrostatic balance): 1050.34 ± 1.6 kg/m3
viscosity (335.76 K, 98060 kPa, Falling or rolling sphere viscometry): 14.23 ± 0.31 mPa·s
mass density (335.78 K, 98 kPa, Buoyancy - hydrostatic balance): 1005.31 ± 1.5 kg/m3
viscosity (335.78 K, 98 kPa, Falling or rolling sphere viscometry): 7.524 ± 0.16 mPa·s
mass density (335.78 K, 147100 kPa, Buoyancy - hydrostatic balance): 1068.19 ± 3.2 kg/m3
viscosity (335.78 K, 147100 kPa, Falling or rolling sphere viscometry): 18.86 ± 0.41 mPa·s
mass density (335.8 K, 49030 kPa, Buoyancy - hydrostatic balance): 1029.3 ± 1.6 kg/m3
viscosity (335.8 K, 49030 kPa, Falling or rolling sphere viscometry): 10.59 ± 0.23 mPa·s
mass density (335.8 K, 196130 kPa, Buoyancy - hydrostatic balance): 1082.92 ± 3.2 kg/m3
viscosity (335.8 K, 196130 kPa, Falling or rolling sphere viscometry): 24.61 ± 0.54 mPa·s
mass density (336.01 K, 245160 kPa, Buoyancy - hydrostatic balance): 1095.8 ± 3.3 kg/m3
viscosity (336.01 K, 245160 kPa, Falling or rolling sphere viscometry): 30.53 ± 0.67 mPa·s
mass density (353.15 K, 101.33 kPa, Pycnometric method): 990.28 ± 0.4 kg/m3
viscosity (353.4 K, 101.33 kPa, Capillary tube (Ostwald / Ubbelohde) method): 4.29 ± 0.061 mPa·s
viscosity (353.6 K, 101.33 kPa, Capillary tube (Ostwald / Ubbelohde) method): 4.18 ± 0.06 mPa·s
mass density (364.39 K, 98 kPa, Buoyancy - hydrostatic balance): 981.63 ± 1.5 kg/m3
viscosity (364.39 K, 98 kPa, Falling or rolling sphere viscometry): 3.034 ± 0.065 mPa·s
mass density (364.66 K, 49030 kPa, Buoyancy - hydrostatic balance): 1007.36 ± 1.5 kg/m3
viscosity (364.66 K, 49030 kPa, Falling or rolling sphere viscometry): 4.074 ± 0.088 mPa·s
mass density (364.83 K, 98060 kPa, Buoyancy - hydrostatic balance): 1031.15 ± 1.6 kg/m3
viscosity (364.83 K, 98060 kPa, Falling or rolling sphere viscometry): 5.292 ± 0.11 mPa·s
mass density (364.87 K, 147100 kPa, Buoyancy - hydrostatic balance): 1051.61 ± 3.2 kg/m3
viscosity (364.87 K, 147100 kPa, Falling or rolling sphere viscometry): 6.718 ± 0.14 mPa·s
mass density (364.99 K, 245160 kPa, Buoyancy - hydrostatic balance): 1081.56 ± 3.2 kg/m3
viscosity (364.99 K, 245160 kPa, Falling or rolling sphere viscometry): 10.31 ± 0.22 mPa·s
mass density (365 K, 196130 kPa, Buoyancy - hydrostatic balance): 1067.32 ± 3.2 kg/m3
viscosity (365 K, 196130 kPa, Falling or rolling sphere viscometry): 8.372 ± 0.18 mPa·s
mass density (365.15 K, 101.33 kPa, Pycnometric method): 978.97 ± 0.42 kg/m3
mass density (368.15 K, 101.33 kPa, Pycnometric method): 977.28 ± 0.42 kg/m3
viscosity (388.6 K, 101.33 kPa, Capillary tube (Ostwald / Ubbelohde) method): 1.767 ± 0.015 mPa·s
viscosity (389.3 K, 101.33 kPa, Capillary tube (Ostwald / Ubbelohde) method): 1.7 ± 0.014 mPa·s
mass density (394.95 K, 98 kPa, Buoyancy - hydrostatic balance): 953.22 ± 1.4 kg/m3
viscosity (394.95 K, 98 kPa, Falling or rolling sphere viscometry): 1.504 ± 0.032 mPa·s
mass density (395.11 K, 49030 kPa, Buoyancy - hydrostatic balance): 982.98 ± 1.5 kg/m3
viscosity (395.11 K, 49030 kPa, Falling or rolling sphere viscometry): 1.954 ± 0.042 mPa·s
mass density (395.17 K, 98060 kPa, Buoyancy - hydrostatic balance): 1010.62 ± 1.5 kg/m3
viscosity (395.17 K, 98060 kPa, Falling or rolling sphere viscometry): 2.451 ± 0.052 mPa·s
mass density (395.38 K, 147100 kPa, Buoyancy - hydrostatic balance): 1033.92 ± 3.1 kg/m3
viscosity (395.38 K, 147100 kPa, Falling or rolling sphere viscometry): 3.011 ± 0.065 mPa·s
mass density (395.57 K, 196130 kPa, Buoyancy - hydrostatic balance): 1051.9 ± 3.2 kg/m3
viscosity (395.57 K, 196130 kPa, Falling or rolling sphere viscometry): 3.659 ± 0.078 mPa·s
mass density (395.68 K, 245160 kPa, Buoyancy - hydrostatic balance): 1067.12 ± 3.2 kg/m3
viscosity (395.68 K, 245160 kPa, Falling or rolling sphere viscometry): 4.374 ± 0.094 mPa·s
mass density (399.15 K, 101.33 kPa, Pycnometric method): 949.76 ± 0.49 kg/m3
viscosity (423.3 K, 101.33 kPa, Capillary tube (Ostwald / Ubbelohde) method): 0.926 ± 0.006 mPa·s
mass density (423.51 K, 98 kPa, Buoyancy - hydrostatic balance): 926.76 ± 1.4 kg/m3
viscosity (423.51 K, 98 kPa, Falling or rolling sphere viscometry): 0.925 ± 0.02 mPa·s
mass density (423.62 K, 49030 kPa, Buoyancy - hydrostatic balance): 959.18 ± 1.4 kg/m3
viscosity (423.62 K, 49030 kPa, Falling or rolling sphere viscometry): 1.239 ± 0.026 mPa·s
mass density (423.65 K, 101.33 kPa, Pycnometric method): 925.92 ± 0.54 kg/m3
mass density (423.9 K, 98060 kPa, Buoyancy - hydrostatic balance): 989.94 ± 1.5 kg/m3
viscosity (423.9 K, 98060 kPa, Falling or rolling sphere viscometry): 1.533 ± 0.033 mPa·s
mass density (423.97 K, 147100 kPa, Buoyancy - hydrostatic balance): 1016.34 ± 3 kg/m3
viscosity (423.97 K, 147100 kPa, Falling or rolling sphere viscometry): 1.89 ± 0.04 mPa·s
mass density (424.05 K, 196130 kPa, Buoyancy - hydrostatic balance): 1038.38 ± 3.1 kg/m3
viscosity (424.05 K, 196130 kPa, Falling or rolling sphere viscometry): 2.244 ± 0.048 mPa·s
mass density (424.3 K, 245160 kPa, Buoyancy - hydrostatic balance): 1054.25 ± 3.2 kg/m3
viscosity (424.3 K, 245160 kPa, Falling or rolling sphere viscometry): 2.608 ± 0.056 mPa·s
mass density (450.15 K, 101.33 kPa, Pycnometric method): 896.89 ± 0.59 kg/m3
mass density (452.07 K, 245160 kPa, Buoyancy - hydrostatic balance): 1042.31 ± 3.1 kg/m3
viscosity (452.07 K, 245160 kPa, Falling or rolling sphere viscometry): 1.656 ± 0.035 mPa·s
mass density (452.1 K, 49030 kPa, Buoyancy - hydrostatic balance): 934.51 ± 1.4 kg/m3
viscosity (452.1 K, 49030 kPa, Falling or rolling sphere viscometry): 0.81 ± 0.017 mPa·s
mass density (452.14 K, 98060 kPa, Buoyancy - hydrostatic balance): 965.53 ± 1.4 kg/m3
viscosity (452.14 K, 98060 kPa, Falling or rolling sphere viscometry): 0.995 ± 0.021 mPa·s
mass density (452.17 K, 98 kPa, Buoyancy - hydrostatic balance): 900.36 ± 1.4 kg/m3
viscosity (452.17 K, 98 kPa, Falling or rolling sphere viscometry): 0.604 ± 0.013 mPa·s
mass density (452.18 K, 196130 kPa, Buoyancy - hydrostatic balance): 1022.83 ± 3.1 kg/m3
viscosity (452.18 K, 196130 kPa, Falling or rolling sphere viscometry): 1.425 ± 0.03 mPa·s
mass density (452.19 K, 147100 kPa, Buoyancy - hydrostatic balance): 996.01 ± 3 kg/m3
viscosity (452.19 K, 147100 kPa, Falling or rolling sphere viscometry): 1.212 ± 0.026 mPa·s
viscosity (458.9 K, 101.33 kPa, Capillary tube (Ostwald / Ubbelohde) method): 0.533 ± 0.004 mPa·s
